By IC50 is commonly meant the concentration at which inhibition is half-maximal.

Test [1] addresses T1, LYP (Homo sapiens, UniProt Q9Y2R2).
T1 sequence (Q9Y2R2 2-309): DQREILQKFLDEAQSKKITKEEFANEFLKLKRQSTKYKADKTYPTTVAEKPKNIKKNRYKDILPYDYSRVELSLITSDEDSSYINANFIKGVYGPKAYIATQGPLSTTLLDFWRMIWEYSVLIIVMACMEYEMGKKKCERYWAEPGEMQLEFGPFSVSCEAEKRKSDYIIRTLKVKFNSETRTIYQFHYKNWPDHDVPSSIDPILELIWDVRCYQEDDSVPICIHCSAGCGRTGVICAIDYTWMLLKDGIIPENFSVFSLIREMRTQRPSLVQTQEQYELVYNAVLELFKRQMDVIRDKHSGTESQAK
Nature of the test: LYP inhibition assay with fluorogenic substrates. Type of test: biochemical. As to conditions: for IC50: pH 6.5.

The next test concerns the target T2, PTP-PEST (Homo sapiens, UniProt Q05209).
T2 sequence (Q05209 2-323): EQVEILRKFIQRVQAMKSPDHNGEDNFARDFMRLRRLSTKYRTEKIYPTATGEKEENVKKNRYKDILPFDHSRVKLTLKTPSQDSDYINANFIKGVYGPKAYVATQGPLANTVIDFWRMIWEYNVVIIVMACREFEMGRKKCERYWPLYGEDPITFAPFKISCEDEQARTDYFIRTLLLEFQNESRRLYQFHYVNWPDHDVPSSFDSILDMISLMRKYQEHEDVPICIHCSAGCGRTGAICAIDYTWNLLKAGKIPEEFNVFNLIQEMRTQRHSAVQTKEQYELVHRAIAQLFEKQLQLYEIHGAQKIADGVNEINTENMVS
Nature of the test: PTP-PEST inhibition assay with fluorogenic substrates. In kind it is biochemical. The note with it: pH 6.5.

The test system of test [2] is LYP. Nature of the test: Intracellular LYP inhibition in JTAg cells, anti-pLck. Type of test: cell-based, human.
The target of test [3] is T3, CD45 (Homo sapiens, UniProt P08575).
T3 sequence (P08575 653-912 limits assumed): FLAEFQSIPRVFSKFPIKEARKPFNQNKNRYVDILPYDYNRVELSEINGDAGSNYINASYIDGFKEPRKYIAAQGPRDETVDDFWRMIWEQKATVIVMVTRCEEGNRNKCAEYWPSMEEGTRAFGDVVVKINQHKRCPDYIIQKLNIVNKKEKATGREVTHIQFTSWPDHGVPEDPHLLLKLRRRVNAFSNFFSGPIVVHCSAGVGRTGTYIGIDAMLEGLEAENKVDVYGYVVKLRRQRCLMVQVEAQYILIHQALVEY
Nature of the test: CD45 counterscreen. In kind it is biochemical. The note with it: read-out: IC50 CD45 (DiFMUP). For orientation: Counterscreens check selectivity or assay interference.

Test [4] addresses T4, CD45 (Homo sapiens, UniProt P08575).
T4 sequence (P08575 26-1306): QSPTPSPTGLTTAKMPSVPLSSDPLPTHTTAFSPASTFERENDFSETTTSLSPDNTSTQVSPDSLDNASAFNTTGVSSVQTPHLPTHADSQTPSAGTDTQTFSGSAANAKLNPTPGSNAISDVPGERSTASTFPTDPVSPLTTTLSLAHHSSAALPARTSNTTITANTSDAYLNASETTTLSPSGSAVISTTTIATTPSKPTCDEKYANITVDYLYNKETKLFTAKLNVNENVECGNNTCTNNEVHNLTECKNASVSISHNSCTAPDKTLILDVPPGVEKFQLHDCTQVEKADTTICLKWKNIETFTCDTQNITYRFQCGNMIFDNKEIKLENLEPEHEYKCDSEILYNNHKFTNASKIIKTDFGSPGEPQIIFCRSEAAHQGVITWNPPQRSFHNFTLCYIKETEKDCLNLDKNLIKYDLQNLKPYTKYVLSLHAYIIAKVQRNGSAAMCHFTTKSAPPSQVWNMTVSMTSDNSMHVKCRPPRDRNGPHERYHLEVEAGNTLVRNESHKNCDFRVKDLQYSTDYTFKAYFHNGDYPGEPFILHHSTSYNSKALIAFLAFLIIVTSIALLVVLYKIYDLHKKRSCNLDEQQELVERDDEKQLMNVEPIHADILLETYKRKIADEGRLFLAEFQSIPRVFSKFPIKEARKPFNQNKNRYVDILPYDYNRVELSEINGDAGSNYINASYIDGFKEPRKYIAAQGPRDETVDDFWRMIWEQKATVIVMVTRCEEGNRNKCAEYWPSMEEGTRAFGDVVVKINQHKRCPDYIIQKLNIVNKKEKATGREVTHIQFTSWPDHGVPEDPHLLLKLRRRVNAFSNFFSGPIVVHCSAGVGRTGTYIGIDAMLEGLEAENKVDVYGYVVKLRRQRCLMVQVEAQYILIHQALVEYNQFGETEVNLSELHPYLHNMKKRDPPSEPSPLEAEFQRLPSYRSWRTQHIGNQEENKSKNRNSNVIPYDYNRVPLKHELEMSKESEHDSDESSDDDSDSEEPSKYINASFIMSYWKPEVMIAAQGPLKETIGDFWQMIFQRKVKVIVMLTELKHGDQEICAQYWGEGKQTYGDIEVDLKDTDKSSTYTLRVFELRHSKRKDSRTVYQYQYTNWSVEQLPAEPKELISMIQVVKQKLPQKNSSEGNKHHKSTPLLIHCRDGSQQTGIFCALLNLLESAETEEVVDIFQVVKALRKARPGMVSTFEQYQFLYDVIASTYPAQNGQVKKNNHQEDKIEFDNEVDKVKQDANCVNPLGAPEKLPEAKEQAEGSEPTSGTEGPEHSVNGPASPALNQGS
The test can be described thus: Intracellular CD45 inhibition in JTAg cells, anti-pLck. In kind it is cell-based.

For the next test, the target named is T5, HePTP (Homo sapiens, UniProt P35236).
T5 sequence (P35236 65-360): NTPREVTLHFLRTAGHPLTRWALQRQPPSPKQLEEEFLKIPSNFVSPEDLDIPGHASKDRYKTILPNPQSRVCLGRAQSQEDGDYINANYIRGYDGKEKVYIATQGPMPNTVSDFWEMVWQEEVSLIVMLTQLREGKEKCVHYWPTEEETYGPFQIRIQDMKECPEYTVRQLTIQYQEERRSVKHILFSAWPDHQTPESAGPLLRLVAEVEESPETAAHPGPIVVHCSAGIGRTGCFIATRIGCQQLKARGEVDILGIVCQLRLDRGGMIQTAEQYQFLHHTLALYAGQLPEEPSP
The test can be described thus: HePTP counterscreen. Type of test: biochemical. The note with it: read-out: IC50 HePTP (DiFMUP).

In test [5] the test system is CD45.
The test system of test [6] is LYP.

Read-outs that look alike come from different tables or passages of the source.

Consider `CCP(CC)CC.[Au+].[Cl-]` [Compound 39], for which the “selectivity for LYP over PTP-PEST in dose-response screens” value at LYP [1] (in vitro, Table 1) is reported as “selective for LYP over the ~ 70% identical PTP-PEST”. Moreover, on LYP [1] (nominal 5 µM, DiFMUP and peptide 1), the “LYP versus PTP-PEST inhibition in comparative library screen” value is on record as “appears LYP selective with peptide 1, but not with DiFMUP”. The IC50 on LYP [1] (read-out: IC50 LYP (DiFMUP), substrate DiFMUP 1.5 µM) is 33 ± 3 µM; on LYP [1] (read-out: IC50 LYP (peptide 1), substrate peptide 1 10 µM), 26 ± 2 µM; on PTP-PEST (read-out: IC50 PEST (DiFMUP), substrate DiFMUP 1.5 µM), over 150 µM; on PTP-PEST (read-out: IC50 PEST (peptide 1), substrate peptide 1 10 µM), 93 ± 9 µM; on CD45 [3] (substrate DiFMUP), 33 ± 3 µM; at HePTP (substrate DiFMUP), 120 ± 5 µM. The “selectivity for LYP over PTP-PEST” value at LYP [1] (with peptide 1 as substrate) is about 4 fold. The “phosphorylation of Lck at Y394 (LYP activity in cells)” value with LYP [2] (JTAg cells, TCR stimulated (C305, 2 min), 50 µM of 17 and 34, 25 µM of 39, 1 h) is recorded as “increase in phosphorylation at Y394”. For the same molecule, the “phosphorylation of Lck at Y505 (CD45 activity in cells)” value at CD45 [4] (JTAg cells, 50 µM of 17 and 34, 25 µM of 39, 1 h) is “increase in this band”.

`[Cl][Au][PH](c1ccccc1)(c1ccccc1)c1ccccn1` [Compound 17, Diphenyl-2-pyridylphosphine-Au(I)-Cl]: the “LYP versus PTP-PEST inhibition in comparative library screen” value at LYP [1] was “more potent inhibitors of LYP than PTP-PEST regardless of the substrate used”. Further, on LYP [1], the “selectivity for LYP over PTP-PEST in dose-response screens” value is reported as “selective for LYP over the ~ 70% identical PTP-PEST”. The IC50 is 5 ± 0.2 µM on LYP [1] (read-out: IC50 LYP (DiFMUP)); 1.5 ± 0.3 µM at LYP [1] (read-out: IC50 LYP (peptide 1)); 76 ± 3 µM on PTP-PEST (read-out: IC50 PEST (DiFMUP)); 43 ± 3 µM on PTP-PEST (read-out: IC50 PEST (peptide 1)); over 150 µM on CD45 [3]; 35 ± 2 µM on HePTP. Further, the “phosphorylation of Lck at Y394 (LYP activity in cells)” value in the test on LYP [2] is given as “increase in phosphorylation at Y394”. Besides, the “CD45 activity in primary mouse thymocytes (pLck Tyr505)” value in the test on CD45 [5] was “not CD45 activity”. The “phosphorylation of Lck at Y505 (CD45 activity in cells)” value at CD45 [4] was “no change in phosphorylation levels at position Y505”. Moreover, the “LYP activity in primary mouse thymocytes (pLck Tyr394)” value in the test with LYP [6] is given as “appears to inhibit LYP activity”.
